The subject of assay [1] is ROS 17/2.8 rat osteosarcoma cells. Description: Intracellular cAMP in ROS 17/2.8 cells. It counts as cell-based. How it is done:
(§1) RCT-1 and RCT-3 are clonal cell lines immortalized by SV-40 large T antigen from cells released from fetal rat calvair by a cmbination collagenase/hyaluronidase digestion. RCT-1 cells, derived from cells released during the first 10 minutes of digestion (fraction I), are cultured in RPMI 1640 medium (BRL) with 10% fetal bovine serum and 0.4 mg/ml G418 (BRL). […] RCT-3 cells, immortalized from osteoblast-enriched fraction III cells, are cultured in F-12 medium (BRL) with 5% Fetal bovine serum and 0.4 mg/ml G418. TRAB-11 cells are also immortalized by SV40 large T antigen from adult rat tibia and are cultured in RPMI 1640 medium with 10% FBS and 0.4 mg/ml G418. ROS 17/2.8 rat osteosarcoma cells are cultured in F-12 containing 5% FBS. Osteoblast-enriched (fraction III) primary fetal rat calvaria cells are obtained by collagenase/hyaluronidase digestion of calvariae of 19 day-old rat fetuses. See Rodan et al., Growth stimulation of rat calvaria osteoblastic cells by acidic FGF, Endocrinology, 121, 1919-1923 (1987), which is incorporated by reference herein in its entirety. Cells are released during 30-50 minutes digestion (fraction III) and are cultured in F-12 medium containing 5% FBS. […]

Assay [2] concerns RCT-3 cells. Put plainly: Intracellular cAMP in RCT-3 cells. It counts as cell-based, rat. How it is done: as §1
The subject of assay [3] is TRAB-11 cells. Put plainly: Intracellular cAMP in TRAB-11 cells. It counts as cell-based, rat. How it is done:
as §1

For assay [4], the system named is EP4 mRNA in RP-1 periosteal cells. Put plainly: EP4 mRNA in RP-1 periosteal cells (Northern blot). The note with it: 10^-6 M. The class given is cell-based, rat. How it is done: (§2) RP-1 periosteal cells are spontaneously immortalized from primary cultures of periosteal cells from tibae of 4-week old Sprague-Dawley rats and are cultured in DMEM (BRL, Gaithersburg, Md.) with 10% fetal bovine serum (JRH Biosciences, Lenexa, Kans.). […] Total RNA is extracted from the tibial metaphysis or diaphysis and calvaria using a guanidinium isothiocyanate-phenol-chloroform method after pulverizing frozen bone samples by a tissue homogenizer. See P. Chomczynski et al., Single-step method of RNA isolation by acid guanidium thiocyanate-phenol-chloroform extraction., Analyt Biochem, 162, 156-159 (1987), which is incorporated by reference herein in its entirety. RNA samples ([…]) are separated on 0.9% agarose/formaldehyde gels and transferred onto nylon membranes (Boehringer Mannheim, Germany). Membranes are prehybridized in Hybrisol I (Oncor, Gaithersburg, Md.) and 0.5 mg/ml sonicated salmon sperm DNA (Boehringer) at 42° C. for 3 hours and are hybridized at 42° C. with rat EP2 and mouse EP4 cDNA probes labeled with [^32P]-dCTP (Amersham, Buckinghamshire, UK) by random priming using the rediprime kit (Amersham). After hybridization, membranes are washed 4 times in 2×SSC+0.1% SDS at room temperature for a total of 1 hour and once with 0.2×SSC+0.1% SDS at 55° C. for 1 hour and then exposed to Kodak XAR 2 film at −70° C. using intensifying screens. […]

The subject of assay [5] is EP4 mRNA in RCT-3 cells. Put plainly: EP4 mRNA in RCT-3 cells (Northern blot). The class given is cell-based, rat. How it is done:
RCT-1 and RCT-3 are clonal cell lines immortalized by SV-40 large T antigen from cells released from fetal rat calvair by a cmbination collagenase/hyaluronidase digestion. RCT-1 cells, derived from cells released during the first 10 minutes of digestion (fraction I), are cultured in RPMI 1640 medium (BRL) with 10% fetal bovine serum and 0.4 mg/ml G418 (BRL). […] RCT-3 cells, immortalized from osteoblast-enriched fraction III cells, are cultured in F-12 medium (BRL) with 5% Fetal bovine serum and 0.4 mg/ml G418. TRAB-11 cells are also immortalized by SV40 large T antigen from adult rat tibia and are cultured in RPMI 1640 medium with 10% FBS and 0.4 mg/ml G418. ROS 17/2.8 rat osteosarcoma cells are cultured in F-12 containing 5% FBS. Osteoblast-enriched (fraction III) primary fetal rat calvaria cells are obtained by collagenase/hyaluronidase digestion of calvariae of 19 day-old rat fetuses. See Rodan et al., Growth stimulation of rat calvaria osteoblastic cells by acidic FGF, Endocrinology, 121, 1919-1923 (1987), which is incorporated by reference herein in its entirety. Cells are released during 30-50 minutes digestion (fraction III) and are cultured in F-12 medium containing 5% FBS. Total RNA is extracted from the tibial metaphysis or diaphysis and calvaria using a guanidinium isothiocyanate-phenol-chloroform method after pulverizing frozen bone samples by a tissue homogenizer. […]

Assay [6] deals with EP2 mRNA in RP-1 cells. Description: EP2 mRNA in RP-1 cells (Northern blot). It counts as cell-based, rat. How it is done: as §2
In assay [7] the test system is EP4 mRNA in tibiae and calvariae. Put plainly: EP4 mRNA in rat bone tissue after systemic administration (Northern blot). It counts as in vivo. How it is done: For mRNA localization experiments, 5-week old Sprague-Dawley rats (Charles River) are euthanized by CO2, their tibiae and calvariae are excised, cleaned of soft tissues and frozen immediately in liquid nitrogen. For EP4 regulation experiments, 6-week old rats are given a single injection of either vehicle (7% ethanol in sterile water) or an anabolic dose of PGE2 (Cayman Chemical, Ann Arbor, Mich.), 3-6 mg/kg in the same vehicle) intraperitoneally. Animals are euthanized at several time points post-injection and their tibiae and calvariae, as well as samples from lung and kidney tissues are frozen in liquid nitrogen. Total RNA is extracted from the tibial metaphysis or diaphysis and calvaria using a guanidinium isothiocyanate-phenol-chloroform method after pulverizing frozen bone samples by a tissue homogenizer. See P. Chomczynski et al., Single-step method of RNA isolation by acid guanidium thiocyanate-phenol-chloroform extraction., Analyt Biochem, 162, 156-159 (1987), which is incorporated by reference herein in its entirety. RNA samples ([…]) are separated on 0.9% agarose/formaldehyde gels and transferred onto nylon membranes (Boehringer Mannheim, Germany). Membranes are prehybridized in Hybrisol I (Oncor, Gaithersburg, Md.) and 0.5 mg/ml sonicated salmon sperm DNA (Boehringer) at 42° C. for 3 hours and are hybridized at 42° C. with rat EP2 and mouse EP4 cDNA probes labeled with [^32P]-dCTP (Amersham, Buckinghamshire, UK) by random priming using the rediprime kit (Amersham). After hybridization, membranes are washed 4 times in 2×SSC+0.1% SDS at room temperature for a total of 1 hour and once with 0.2×SSC+0.1% SDS at 55° C. for 1 hour and then exposed to Kodak XAR 2 film at −70° C. using intensifying screens. After developing the films, bound probes are removed twice with 0.1% SDS at 80° C. and membranes are hybridized with a human GAPDH (Glyceraldehyde 3-Phosphate Dehydrogenase) cDNA probe (purchased from Clontech, Palo Alto, Calif.) for loading control. To examine if PGE2 regulates EP4 mRNA levels in vivo in bone tissue, […] male rats are injected with PGE2 (3-6 mg/Kg).

Assay [8] relates to EP2 mRNA in bone tissue. Put plainly: EP2 mRNA in rat bone tissue after systemic administration (Northern blot). The class given is in vivo. The note with it: rats, 3-6 mg/Kg. How it is done: For mRNA localization experiments, 5-week old Sprague-Dawley rats (Charles River) are euthanized by CO2, their tibiae and calvariae are excised, cleaned of soft tissues and frozen immediately in liquid nitrogen. For EP4 regulation experiments, 6-week old rats are given a single injection of either vehicle (7% ethanol in sterile water) or an anabolic dose of PGE2 (Cayman Chemical, Ann Arbor, Mich.), 3-6 mg/kg in the same vehicle) intraperitoneally. Animals are euthanized at several time points post-injection and their tibiae and calvariae, as well as samples from lung and kidney tissues are frozen in liquid nitrogen. Total RNA is extracted from the tibial metaphysis or diaphysis and calvaria using a guanidinium isothiocyanate-phenol-chloroform method after pulverizing frozen bone samples by a tissue homogenizer. See P. Chomczynski et al., Single-step method of RNA isolation by acid guanidium thiocyanate-phenol-chloroform extraction., Analyt Biochem, 162, 156-159 (1987), which is incorporated by reference herein in its entirety. RNA samples ([…]) are separated on 0.9% agarose/formaldehyde gels and transferred onto nylon membranes (Boehringer Mannheim, Germany). […]

For assay [9], the system named is EP4 expression in bone marrow cells. Description: In situ hybridization of EP4 in rat tibia. The class given is in vivo. As to conditions: rats, single anabolic dose, tibial metaphysis. How it is done:
For mRNA localization experiments, 5-week old Sprague-Dawley rats (Charles River) are euthanized by CO2, their tibiae and calvariae are excised, cleaned of soft tissues and frozen immediately in liquid nitrogen. For EP4 regulation experiments, 6-week old rats are given a single injection of either vehicle (7% ethanol in sterile water) or an anabolic dose of PGE2 (Cayman Chemical, Ann Arbor, Mich.), 3-6 mg/kg in the same vehicle) intraperitoneally. Animals are euthanized at several time points post-injection and their tibiae and calvariae, as well as samples from lung and kidney tissues are frozen in liquid nitrogen.
Frozen tibiae are sectioned coronally at […] thickness and sections are mounted on charged slides (Probe On Plus, Fisher Scientific, Springfield, N.J.) and are kept at −70° C. until hybridization. cRNA probes are labeled with ^35S-UTPgS (ICN, Costa Mesa, Calif.) using a Riboprobe II kit (Promega Madison, Wis.). Hybridization is performed overnight at 50° C. […]
In situ hybridization is used in order to localize cells expressing EP4 in bone In control experiment (vehicle-injected) rats, low expression of EP4 is detected in bone marrow cells. […]

Consider `CCCCC[C@H](O)/C=C/[C@H]1[C@H](O)CC(=O)[C@@H]1C/C=C\CCCC(=O)O` [PGE2, prostaglandin E2], for which, in assay [1], the “effect on intracellular cAMP” value is on record as “no effect”. In addition, in assay [2], the “effect on intracellular cAMP” value is reported as “markedly induced”. Moreover, the “effect on intracellular cAMP” value in assay [3] is “markedly induced”. In assay [4], the “effect on EP4 mRNA levels” value is “rapidly increases” and the “time of peak of EP4 mRNA levels after treatment” value is 2 h. In addition, the “effect on EP4 mRNA levels” value in [5] is “no effect”. Further, in assay [6], the “induction of EP2 mRNA” value is “does not induce”. In assay [7] (rats, 3-6 mg/Kg), the “effect on EP4 mRNA levels in the tibial diaphysis” value is given as “rapidly increased” and the “time of peak of EP4 mRNA levels in the tibial diaphysis after injection” value amounted to 2 h. In assay [7] (young adult rats, 3-6 mg/kg), the “effect on expression of EP4 in tibiae and calvariae” value was “upregulates”; the “time of peak of EP4 expression in tibiae and calvariae” value was 1 to 2 h. Besides, the “induction of EP2 mRNA in bone tissue” value in assay [8] is listed as “does not induce”. Also, in assay [9], the “expression of EP4 in bone marrow cells (in situ hybridization)” value was “increasesd the expression”.

(Values after patent US20020004495A1, “Methods for stimulating bone formation” (priority 1998, published 2002).)
